Data taken from patent US20240368203A1, “DEGRADATION OF (EGFR) BY CONJUGATION OF EGFR INHIBITORS WITH E3 LIGASE LIGAND AND METHODS OF USE” (BeiGene, Ltd., priority 2022, published 2024).

What was measured:
EGFR-L858R/T790M/C797S = biological target: T1, EGFR-L858R/T790M/C797S (Homo sapiens, UniProt P00533, C797S/L858R/T790M); assay: EGFR degradation HTRF assay in H1975-clone #25 cells; format: cell-based; details: 16 h treatment; for DC50: H1975-clone #25 (L858R/T790M/C797S) cells, IC50 (DC50), read-out: DC50(nM) H1975 # 25-LTC; for Dmax: NCI-H1975, H1975-clone #25 (L858R/T790M/C797S) cells, maximum percentage of inhibition (degradation), read-out: Dmax (%) H1975 # 25-LTC
T1 construct: expressed in transfected cells; host or cells: H1975-clone #25 (lentiviral over-expression, endogenous EGFR knocked out)
T1 sequence (P00533 25-1210 T790M/C797S/L858R): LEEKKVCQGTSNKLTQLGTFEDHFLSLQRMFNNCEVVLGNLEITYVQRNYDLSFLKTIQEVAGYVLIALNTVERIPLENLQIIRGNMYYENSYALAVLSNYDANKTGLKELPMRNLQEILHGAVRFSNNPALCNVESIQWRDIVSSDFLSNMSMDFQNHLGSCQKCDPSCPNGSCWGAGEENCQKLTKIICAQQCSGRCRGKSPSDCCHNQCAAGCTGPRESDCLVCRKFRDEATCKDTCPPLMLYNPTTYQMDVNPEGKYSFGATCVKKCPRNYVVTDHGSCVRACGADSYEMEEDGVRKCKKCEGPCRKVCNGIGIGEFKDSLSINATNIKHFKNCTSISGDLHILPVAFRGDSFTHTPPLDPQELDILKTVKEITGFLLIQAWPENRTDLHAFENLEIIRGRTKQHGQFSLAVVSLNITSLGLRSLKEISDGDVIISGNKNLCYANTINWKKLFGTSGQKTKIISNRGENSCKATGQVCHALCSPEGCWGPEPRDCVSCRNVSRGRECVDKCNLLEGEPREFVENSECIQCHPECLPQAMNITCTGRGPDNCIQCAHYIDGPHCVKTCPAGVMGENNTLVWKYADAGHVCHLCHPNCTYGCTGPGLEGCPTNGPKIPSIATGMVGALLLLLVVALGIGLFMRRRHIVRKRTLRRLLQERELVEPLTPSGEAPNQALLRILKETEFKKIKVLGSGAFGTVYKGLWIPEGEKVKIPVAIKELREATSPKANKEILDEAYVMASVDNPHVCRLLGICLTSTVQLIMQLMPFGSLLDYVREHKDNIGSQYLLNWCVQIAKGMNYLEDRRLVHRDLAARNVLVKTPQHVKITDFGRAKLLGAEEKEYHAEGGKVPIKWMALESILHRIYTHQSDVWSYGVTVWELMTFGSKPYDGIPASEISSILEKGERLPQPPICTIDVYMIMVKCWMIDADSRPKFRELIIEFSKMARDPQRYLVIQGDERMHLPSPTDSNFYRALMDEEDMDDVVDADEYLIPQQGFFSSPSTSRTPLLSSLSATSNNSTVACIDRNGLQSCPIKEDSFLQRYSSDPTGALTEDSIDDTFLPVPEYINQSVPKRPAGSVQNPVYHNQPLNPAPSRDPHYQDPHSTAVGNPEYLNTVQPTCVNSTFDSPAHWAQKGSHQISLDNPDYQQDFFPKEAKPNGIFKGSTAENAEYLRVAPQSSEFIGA
Method: (§1) H1975-clone #28(Del19/T790M/C797S) and H1975-clone #25(L858R/T790M/C797S). EGFR-Del19/T790M/C797S and EGFR-L858R/T790M/C797S were stably expressed in H1975 cell lines by lentivirus-mediated over-expression, respectively. The EGFR over-expressed cells then underwent knockout, in which the EGFR targeting sgRNA was designed to only target the endogenous EGFR copies and preserve the exogenous EGFR copies. Followed by knockout, the edited H1975 cells were seeded in 96 well plates at the concentration of […], cultured for about 2 weeks to allow single clones formation. The formed clones were screened by DNA sequencing and whole exon sequencing analysis for the desired edition.
(§2) H1975-clone #28, and H1975-clone #25 were finally confirmed as homozygous Del19/T790M/C797S EGFR, and L858R/T790M/C797S EGFR clones, respectively.
(§3) H1975-#25 and H1975-#28 cells are treated with compounds diluted in 0.2% DMSO cell culture medium on day 2, incubate for 16 h, 37° C., 5% CO2. the final concentration of compounds in all assay is start with 10 uM, 5-fold dilution, total 8 doses were included.
(§4) After 16 h treatment, add HTRF lysis buffer to each well; seal the plate and incubate 1 hour at room temperature on a plate shaker; Once the cells are lysed, 16 μL of cell lysate are transferred to a PE 384-well HTRF detection plate; 4 μL of pre-mixed HTRF antibodies are added to each well; Cover the plate with a plate sealer, spin 1000 rpm for 1 min, Incubate overnight at room temperature; Read on BMG PheraStar with HTRF protocol (337 nm-665 nm-620 nm).
(§5) The inhibition (degradation) percentage of the compound was calculated by the following equation:
(§6) Inhibition percentage of Compound=100−100×(Signal−low control)/(High control−low control),
(§7) The IC50 (DC50) value of a compound can be obtained by fitting the following equation
(§8) Wherein, X and Y are known values, and IC50, Hillslope, Top and Bottom are the parameters obtained by fitting with software. Y is the inhibition percentage (calculated from the equation), X is the concentration of the compound; IC50 is the concentration of the compound when the 50% inhibition is reached. The smaller the IC50 value is, the stronger the inhibitory ability of the compound is. Vice versa, the higher the IC50 value is, the weaker the ability the inhibitory ability of the compound is; Hillslope represents the slope of the fitted curve, generally around 1 *; Bottom represents the minimum value of the curve obtained by data fitting, which is generally 0%±20%; Top represents the maximum value of the curve obtained by data fitting, which is generally 100%±20%. The experimental data were fitted by calculating and analyzing with Dotmatics data analysis software.

EGFR-Del19/T790M/C797S = assay: EGFR degradation HTRF assay in H1975-clone #28 cells; format: cell-based; details: H1975-clone #28 (Del19/T790M/C797S) cells, 16 h treatment; for DC50: IC50 (DC50), read-out: DC50(nM) H1975 # 28 DTC; for Dmax (%) H1975 # 28 DTC: maximum percentage of inhibition (degradation)
Method: as §1, §2, §3, §4, §5, §6, §7, §8

Row | Compound | DC50 (EGFR-L858R/T790M/C797S) | Dmax (EGFR-L858R/T790M/C797S) | DC50 (EGFR-Del19/T790M/C797S) | Dmax (%) H1975 # 28 DTC (EGFR-Del19/T790M/C797S)
1 | CCc1cc(Nc2ncc(Br)c(Nc3ccc4nc(C)c(F)cc4c3P(C)(C)=O)n2)c(OC)cc1N1CCC2(CCN(CC3CCN(c4ccc5c(c4)C(=O)N(C4CCC(=O)NC4=O)C5=O)CC3)CC2)CC1 (centres unmarked) [Example 46, 5-(4-((9-(4-((5-bromo-4-((5-(dimethylphosphoryl)-3-fluoro-2-methylquinolin-6-yl)amino)pyrimidin-2-yl)amino)-2-ethyl-5-methoxyphenyl)-3,9-diazaspiro [5.5]undecan-3-yl)methyl)piperidin-1-yl)-2-(2,6-dioxopiperidin-3-yl)isoindoline-1,3-dione] | 5.4 nM | 89% | 3.3 nM | 80%
2 | CCc1cc(Nc2ncc(Cl)c(Nc3ccc4nc(C)c(F)cc4c3P(C)(C)=O)n2)c(OC)cc1N1CCC2(CC1)CCN(C1CCN(c3cc(F)c([C@H]4CCC(=O)NC4=O)c(F)c3)CC1)CC2 [Example 2, (R)-3-(4-(4-(9-(4-((5-chloro-4-((5-(dimethylphosphoryl)-3-fluoro-2-methylquinolin-6-yl)amino)pyrimidin-2-yl)amino)-2-ethyl-5-methoxyphenyl)-3,9-diazaspiro[5.5]undecan-3-yl)piperidin-1-yl)-2,6-difluorophenyl)piperidine-2,6-dione] | 3.4 nM | 92% | 3.5 nM | 89%
3 | CCc1ccc2c(P(C)(C)=O)c(Nc3nc(Nc4cc(C)c(N5CCC6(CCN(CCc7cccc8c7n(C)c(=O)n8C7CCC(=O)NC7=O)CC6)CC5)cc4OC)ncc3Br)ccc2n1 (centres unmarked) [Example 68, 3-(4-(2-(9-(4-((5-bromo-4-((5-(dimethylphosphoryl)-2-ethylquinolin-6-yl)amino)pyrimidin-2-yl)amino)-5-methoxy-2-methylphenyl)-3,9-diazaspiro[5.5]undecan-3-yl)ethyl)-3-methyl-2-oxo-2,3-dihydro-1H-benzol[d]imidazol-1-yl)piperidine-2,6-dione] | 3.1 nM | 81% | 2.2 nM | 82%
4 | CCc1ncc2c(P(C)(C)=O)c(Nc3nc(Nc4cc(CC)c(N5CCC(N6CC7(CCN(c8cc(F)c([C@H]9CCC(=O)NC9=O)c(F)c8)CC7)C6)CC5)cc4OC)ncc3Br)ccc2n1 (single isomer, unassigned) [Example 20] | 1.4 nM | 92% | 2.9 nM | 90%
5 | CCOc1cc(N2CCC(N3CC4(CCN(c5cc(F)c([C@H]6CCC(=O)NC6=O)c(F)c5)CC4)C3)CC2)c(CC)cc1Nc1ncc(Cl)c(Nc2ccc3nc(C)c(F)cc3c2P(C)(C)=O)n1 [Example 59, (R)-3-(4-(2-(1-(4-((5-chloro-4-((5-(dimethylphosphoryl)-3-fluoro-2-methylquinolin-6-yl)amino)pyrimidin-2-yl)amino)-5-ethoxy-2-ethylphenyl)piperidin-4-yl)-2,7-diazaspiro[3.5]nonan-7-yl)-2,6-difluorophenyl)piperidine-2,6-dione] | 2.7 nM | 92% | 3.8 nM | 87%
6 | CCc1cc(Nc2ncc(Br)c(Nc3ccc4nc(C)c(F)cc4c3P(C)(C)=O)n2)c(OC)cc1N1CCC2(CC1)CCN(C1CCN(c3cccc4c3C(C)(C)C(=O)N4C3CCC(=O)NC3=O)CC1)CC2 (centres unmarked) [Example 52, 3-(4-(4-(9-(4-((5-bromo-4-((5-(dimethylphosphoryl)-3-fluoro-2-methylquinolin-6-yl)amino)pyrimidin-2-yl)amino)-2-ethyl-5-methoxyphenyl)-3,9-diazaspiro[5.5]undecan-3-yl)piperidin-1-yl)-3,3-dimethyl-2-oxoindolin-1-yl)piperidine-2,6-dione] | 3.8 nM | 90% | 3.4 nM | 79%
7 | CCc1ncc2c(P(C)(C)=O)c(Nc3nc(Nc4cc(CC)c(N5CCC(N6CC(N7CCC(c8cc(F)c([C@H]9CCC(=O)NC9=O)c(F)c8)CC7)C6)CC5)cc4OC)ncc3Br)ccc2n1 [Example 13, (R)-3-(4-(1-(1-(1-(4-((5-bromo-4-((5-(dimethylphosphoryl)-2-ethylquinazolin-6-yl)amino)pyrimidin-2-yl)amino)-2-ethyl-5-methoxyphenyl)piperidin-4-yl)azetidin-3-yl)piperidin-4-yl)-2,6-difluorophenyl)piperidine-2,6-dione] | 1.8 nM | 94% | 0.7 nM | 92%

More lines, in order of falling DC50 (EGFR-L858R/T790M/C797S), values ahead:

Row | DC50 (EGFR-L858R/T790M/C797S) | Dmax (EGFR-L858R/T790M/C797S) | DC50 (EGFR-Del19/T790M/C797S) | Compound | Dmax (%) H1975 # 28 DTC (EGFR-Del19/T790M/C797S)
8 | 6.9 nM | 93% | 3.5 nM | COc1cc(N2CCC3(CC2)CCN(C2CCN(c4cc(F)c([C@H]5CCC(=O)NC5=O)c(F)c4)CC2)CC3)c(C)cc1Nc1ncc(Br)c(Nc2ccc3nc(C)ncc3c2P(C)(C)=O)n1 [Example 66, (R)-3-(4-(4-(9-(4-((5-bromo-4-((5-(dimethylphosphoryl)-2-methylquinazolin-6-yl)amino)pyrimidin-2-yl)amino)-5-methoxy-2-methylphenyl)-3,9-diazaspiro[5.5]undecan-3-yl)piperidin-1-yl)-2,6-difluorophenyl)piperidine-2,6-dione] | 91%
9 | 4.6 nM | 90% | 3.7 nM | CCc1cc(Nc2ncc(Br)c(Nc3ccc4nc(C)c(F)cc4c3P(C)(C)=O)n2)c(OC)cc1N1CCC2(CCN(CCNc3cc(F)c([C@H]4CCC(=O)NC4=O)c(F)c3)CC2)CC1 (single isomer, unassigned) [Example 43] | 87%
10 | 3.8 nM | 86% | 1.3 nM | CCc1ncc2c(P(C)(C)=O)c(Nc3nc(Nc4cc(CC)c(N5CCC(N6CCN([C@H]7CCN(c8cc(F)c([C@H]9CCC(=O)NC9=O)c(F)c8)C7)CC6)CC5)cc4OC)ncc3Br)ccc2n1 (single isomer, unassigned) [Example 9] | 86%
11 | 3.7 nM | 92% | 3.1 nM | CCc1cc(Nc2ncc(Br)c(Nc3ccc4nc(C)c(F)cc4c3P(C)(C)=O)n2)c(OC)cc1N1CCC2(CC1)CCN(C1CC(c3cc(F)c([C@H]4CCC(=O)NC4=O)c(F)c3)C1)CC2 (single isomer, unassigned) [Example 5] | 90%
12 | 2.9 nM | 87% | 1.7 nM | CCc1cc(Nc2ncc(Br)c(Nc3ccc4nc(C)c(F)cc4c3P(C)(C)=O)n2)c(OC)cc1N1CCC(N2CCC3(CCN(c4cc(F)c([C@H]5CCC(=O)NC5=O)c(F)c4)C3)C2)CC1 (stereo partly drawn) [Example 17, (3R)-3-(4-(7-(1-(4-((5-bromo-4-((5-(dimethylphosphoryl)-3-fluoro-2-methylquinolin-6-yl)amino)pyrimidin-2-yl)amino)-2-ethyl-5-methoxyphenyl)piperidin-4-yl)-2,7-diazaspiro[4.4]nonan-2-yl)-2,6-difluorophenyl)piperidine-2,6-dione] | 92%
13 | 1.5 nM | 95% | 1.1 nM | CCc1cc(Nc2ncc(Br)c(Nc3ccc4nc(C)c(F)cc4c3P(C)(C)=O)n2)c(OC)cc1N1CC2(C1)CN(C1CCN(c3cc(F)c([C@H]4CCC(=O)NC4=O)c(F)c3)CC1)C2 [Example 64, (R)-3-(4-(4-(6-(4-((5-bromo-4-((5-(dimethylphosphoryl)-3-fluoro-2-methylquinolin-6-yl)amino)pyrimidin-2-yl)amino)-2-ethyl-5-methoxyphenyl)-2,6-diazaspiro[3.3]heptan-2-yl)piperidin-1-yl)-2,6-difluorophenyl)piperidine-2,6-dione] | 94%
14 | 1.1 nM | 85% | 2.8 nM | CCc1cc(Nc2ncc(Br)c(Nc3ccc4nc(C)c(F)cc4c3P(C)(C)=O)n2)c(OC)cc1N1CCC(N2CC(N3CCN(c4cc(F)c([C@H]5CCC(=O)NC5=O)c(F)c4)CC3)C2)CC1 (single isomer, unassigned) [Example 16] | 88%
